ChEMBL document CHEMBL1128900, “Non-peptidic inhibitors of neutral endopeptidase 24.11 1. Discovery and optimization of potency” (Bioorg Med Chem Lett, 1995)

molecular target: T1, Neprilysin (Rattus norvegicus, UniProt P07861); test: In vitro inhibitory activity against neutral endopeptidase (NEP)
T1 sequence (P07861 whole entry): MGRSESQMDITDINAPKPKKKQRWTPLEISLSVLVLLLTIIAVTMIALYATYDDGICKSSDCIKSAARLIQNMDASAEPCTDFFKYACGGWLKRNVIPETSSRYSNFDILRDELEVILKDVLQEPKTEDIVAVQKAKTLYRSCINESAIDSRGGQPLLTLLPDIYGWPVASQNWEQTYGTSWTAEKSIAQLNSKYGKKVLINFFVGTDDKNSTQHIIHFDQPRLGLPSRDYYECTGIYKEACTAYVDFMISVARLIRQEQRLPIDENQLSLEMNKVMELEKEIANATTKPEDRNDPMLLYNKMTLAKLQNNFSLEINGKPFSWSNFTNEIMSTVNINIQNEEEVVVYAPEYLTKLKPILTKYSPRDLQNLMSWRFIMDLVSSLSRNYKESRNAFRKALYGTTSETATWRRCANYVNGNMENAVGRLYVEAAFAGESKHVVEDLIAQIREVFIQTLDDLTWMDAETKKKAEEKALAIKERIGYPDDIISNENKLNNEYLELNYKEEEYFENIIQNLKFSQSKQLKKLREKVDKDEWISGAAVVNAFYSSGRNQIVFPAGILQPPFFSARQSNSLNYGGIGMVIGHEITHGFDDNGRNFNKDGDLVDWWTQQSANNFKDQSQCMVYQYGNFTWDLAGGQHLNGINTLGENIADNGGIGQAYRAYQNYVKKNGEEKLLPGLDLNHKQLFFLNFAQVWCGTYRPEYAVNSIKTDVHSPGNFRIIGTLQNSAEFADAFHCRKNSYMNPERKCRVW

| IC50 [nM] | Structure (SMILES) |
| --- | --- |
| > 1000 | O=P(O)(O)CNC(c1nnn[nH]1)C(c1ccccc1)c1ccccc1 (configuration not stated) |
| 308 | O=C(NCc1ccccc1)[C@H](Cc1ccc(-c2ccccc2)cc1)NCP(=O)(O)O |
| 1.5 | COc1cc(C[C@H](NCP(=O)(O)O)c2nnn[nH]2)ccc1-c1ccccc1 |
| 1900 | O=C(O)CCNC(=O)[C@H](Cc1ccc(-c2ccccc2)cc1)NCP(=O)(O)O |
| > 10000 | O=C(O)[C@H](Cc1ccc(-c2ccccc2)cc1)NCCP(=O)(O)O |
| > 1000 | O=C(O)[C@H](Cc1ccccc1)NCP(=O)(O)O |
| > 1000 | O=C(O)C(Cc1cccc(-c2ccccc2)c1)NCP(=O)(O)O (configuration not stated) |
| 530 | CN(CP(=O)(O)O)[C@@H](Cc1ccc(-c2ccccc2)cc1)c1nnn[nH]1 |
| 1300 | NC(=O)[C@H](Cc1ccc(-c2ccccc2)cc1)NCP(=O)(O)O |
| > 1000 | O=P(O)(O)CN[C@@H](Cc1ccc(-c2ccccc2)cc1)c1nnnn1Cc1ccccc1 |
| 236 | Cc1ccc(-c2ccc(C[C@H](NCP(=O)(O)O)C(=O)O)cc2)cc1 |
| 15 | O=C(O)C[C@H](Cc1ccc(-c2ccccc2)cc1)NCP(=O)(O)O |
| 364 | O=P(O)(O)CN[C@@H](Cc1ccc2ccccc2c1)c1nnn[nH]1 |
| 14 | COc1cc(C[C@H](NCP(=O)(O)O)C(=O)O)ccc1-c1ccccc1 |
| 32 | O=C(O)/C=C/[C@H](Cc1ccc(-c2ccccc2)cc1)NCP(=O)(O)O |
| > 1000 | O=C(O)C(Cc1ccccc1-c1ccccc1)NCP(=O)(O)O (configuration not stated) |
| > 1000 | O=C(O)[C@H](Cc1ccc(-c2cccnc2)cc1)NCP(=O)(O)O |
| > 10000 | O=P(O)(O)CN[C@@H](CCc1ccccc1)c1nnn[nH]1 |
| 1.4 | O=C(Nc1nn[nH]n1)[C@H](Cc1ccc(-c2ccccc2)cc1)NCP(=O)(O)O |
| 15 | CC(C)Oc1ccc(C[C@H](NCP(=O)(O)O)c2nnn[nH]2)cc1 |
| 643 | O=C(O)CC[C@H](Cc1ccc(-c2ccccc2)cc1)NCP(=O)(O)O |

| Structure (SMILES) | IC50 [nM] |
| --- | --- |
| O=P(O)(O)CN[C@@H](Cc1ccccc1)c1nnn[nH]1 | 26 |
